Read-outs that look alike come from different tables or passages of the source.
Experiments:
[1] = system: K695sw cells; conditions: 5 μM, 500 nM or 50 nM, 24 hours
Protocol: Cell viability was quantified based on the exclusion of the membrane impermeant probe, YO-PRO (Molecular Probes, Eugene, Oreg.). K695sw cells were maintained and exposed to vehicle or various concentrations of FCCP as described above with the exception that cells were plated at a density of 20,000 cells/well in 96-well plates (Falcon®). Twenty-four hours after plating, cells were exposed to various treatments in DMEM supplemented with sodium pyruvate (1 mM) and 10% fetal bovine serum. At the same time as drug exposures, YO-PRO (4 μM) was added to each well and its uptake quantified every 30 minutes for 1 day at 37° C. using a Cytofluor™ 2350 fluorometric plate reader (Millipore, Mississauga, ON). As a positive control, all wells were exposed to 0.1% Triton X-100 at the end of the experiment.

[2] = system: K695 cells; assay: Lysosomal function: Lysosensor Yellow/Blue DND-160 uptake; assay type: cell-based, Human; conditions: FCCP 5 μM and 500 nM, baf A1 1 μM, NH4Cl 20 mM, 4 hrs
Protocol: (§1) Endosomal function was assessed by the fluorometric quantitation of the receptor-mediated uptake of both Texas Red and fluoroscein labelled transferrin (Molecular Probes, Eugene, Oreg.)(33-35). K695 cells were maintained as exposed to various treatments as mentioned with the exception that cells were plated at a density 200,000 cells/well in 24-well plates (Corning™). Twenty-four hours after plating, cells were exposed to various treatments in DMEM supplemented with sodium pyruvate (1 mM) and 10% fetal bovine serum. At the same time as drug exposures, both transferrin-Texas Red (Tf-Tx) and transferrin-fluoroscein (Tf-F) (10 μl/ml media of 5 mg/ml stocks in PBS) were added to each well and incubated for 4 hours at 37° C. Each well was then gently washed three times with warm media and uptake of fluorescent probes quantitated at 37° C. using a Cytofluor™ 2350 fluorometric plate reader (Millipore, Mississauga, ON). Quantitation of the non-pH-dependent Tf-Tx fluorescence and the pH-dependent Tf-F fluorescence was determined using excitation filters of 590 nm (bandwidth=20 nm); 485 nm (bandwidth=20 nm) and emission filters of 645 nm (bandwidth=40 nm); 530 nm (bandwidth=25 nm), respectively. Similarly, Lysosomal function was assayed by the uptake of the fluorescent probe, Lysosensor™ Yellow/Blue DND-160 (Molecular Probes, Eugene, Oreg.)(36). Assay of Lysosensor™ uptake was performed in an identical manner to that of the fluorescent labelled transferrin conjugates with the exception that the addition of 10 μl/ml media of Lysosensor™ was taken from a 1 mM stock solution in DMSO. Quantitation of the non-pH-dependent blue fluorescence and the pH-dependent yellow fluorescence was determined using an excitation filter of 360 nm (bandwidth=40 nm) and emission filters of 460 mn (bandwidth=40 nm) and 530 nm (bandwidth =25 nm), respectively. For all three probes examined, relative fluorescence was obtained from subtraction from sister wells which had not been exposed to fluorophores. […]

[3] = system: K695sw cells; assay: Quantification of cellular ATP levels (luciferase/luciferin); assay type: cell-based, Human; conditions: various concentrations, 30 minutes or 4 hours
Protocol: 20 μl aliqouts of ATP standards and samples were then assayed for ATP content using a luciferase/luciferin ATP determination kit (A-6608, Molecular Probes, Eugene, Oreg.). ATP-dependent luminescence was quantified using an Optocomp® II luminometer (MGM Instruments, Hamden, Conn.) and ATP levels were determined by extrapolation from a standard curve. […] As a positive control, the effect of combined treatment with various concentrations of sodium azide and 2-deoxy-D-glucose (NaA/DG) was also examined in these studies.

[4] = system: mitochondrial membrane potential; conditions: 1 μM FCCP; cited from earlier work
[5] = system: K695 cells; assay: Endosomal function: uptake of Tf-Tx and Tf-F labelled transferrin; assay type: cell-based, Human; conditions: 4 hrs; for impairment of endosomal function (decrease in Tf-Tx and Tf-F signals): baf A1 1 μM, NH4Cl 20 mM
Protocol: as §1

[6] = system: APP carrying the AD-linked double "Swedish" mutation (K695sw cells); conditions: for Aβ release: FCCP 5 μM, 500 nM, 50 nM
Protocol: (§2) Human embryonic kidney (HEK) 293 cells stably transfected with either wild-type APP695 (K695 cells) or APP carrying the AD-linked double “Swedish” mutation (K695sw cells)(30) were cultured in DMEM supplemented with sodium pyruvate (1 mM) and 10% fetal calf serum as previously described (31). Cells were plated at 1,000,000 cells per well in 35 mm^2 culture dishes (Corning™) 24 hours prior to drug exposure. Preceding the addition of drugs, cultures are washed once with warm PBS (37° C.) and then exposed to various treatments in DMEM supplemented with sodium pyruvate (1 mM). Cultures were then exposed to either control media, vehicle (0.05% ethanol), or varying concentrations of FCCP (5 μM, 500 nM, 50 nM). Either 30 minutes or 4 hours after the addition of drugs, the media was removed, the cultures washed once with ice-cold PBS, and then harvested in 100 μl of ice-cold lysis buffer containing 20 mM MOPS (pH 7.2), 5 mM EDTA, 0.01% NP-40, 75 mM β-glycerol phosphate, […], […], 50 mM phosphatase substrate, […], and 1 mg/ml each of leupeptin, aprotinin and pepstatin.
(§3) To examine extracellular APP fragments, the media was retained and centrifuged at 4° C. for 10 min at 16,000 X g to remove cellular debris. Extracellular protein was then precipitated by 10% trichloroacetic acid as previously described (31). Subsequently, secreted APPsα was determined by 10% Tris-Glycine SDS-PAGE Western Blot analysis using the monoclonal antibody WO-2, generated against the first 16 amino acids of the N-terminal region of Aβ (32). Similarly, extracellular Aβ release was examined by 16% Tris-Tricine SDS-PAGE Western Blot analysis using the WO-2 antibody (32). For examination of intracellular APP fragments, cultures were harvested in ice-cold lysis buffer and then sonicated for 8 seconds on ice. Cellular protein levels were quantified using the BCA protein assay (Pierce, Rockford, Ill.) and 10 μg of cellular protein were then separated by either 10% Tris-Glycine or 16% Tris-Tricine SDS-PAGE. Intracellular C100 and total APP were quantitated, respectively, by 16% Tris-Tricine Western Blot analysis using the WO-2 antibody and 10% Tris-Glycine Western Blot analysis using an anti-APP N-terminal antibody (22C11, Boehringer Mannheim, Laval, QC). A diagram of the catabolic fragments of APP and the epitopes to which each antibody binds is depicted in FIG. 1. […] The wavy line represents the plasma membrane. The enzyme α-secretase (α-left) cleaves APP within the Aβ sequence (represented by the heavy line), resulting in release of the ectodomain fragment known as APPsα. The enzymes β and γ secretase (β, γ, right) sequentially cleave APP on either side of the Aβ sequence. β secretase cleavage results in the release of the ectodomain fragment known as APPsβ and production of the cellular fragment known as C100; following γ-secretase cleavage, extracellular Aβ is released. Probing the cellular fraction with antibody 22C11 identifies total cellular APP. Probing the cellular fraction with WO-2 identifies C100 (distinguished by molecular weight). Probing the extracellular fraction with WO-2 identifies both APPsα and Aβ (distinguished by molecular weight).
(§4) Cellular (C100 and total APP) and extracellular (APPsα and Aβ ) APP catabolic fragments were separated using SDS PAGE with either 10% Tris-Glycine (for APPsα and total APP) or 16% Tris-Tricine (for C100 and Aβ) gels. Following electrophoretic separation, proteins were transferred to nitrocellulose membranes and probed with either the monoclonal antibody WO-2 to detect C100, APPsα and Aβ, or 22C11 to detect total cellular APP. Immunoreactive bands were visualized using ECL detection (Amersham, Oakville, ON) and analyzed by standard autoradiographic and densitometric techniques as described (31).

[7] = system: wild-type APP695 (K695 cells); conditions: 4 hours
Protocol: as §2, §3, §4

[8] = system: cellular ATP levels; conditions: 30 μM FCCP for 2 hours; cited from earlier work
[9] = system: APP; conditions: background; NH4Cl at high concentrations; cited from earlier work
[10] = system: K695sw cells; conditions: previous studies; cited from earlier work
[11] = system: cells expressing wild-type APP (K695 cells); conditions: previous studies; cited from earlier work

Structure (SMILES): N#CC(C#N)=NNc1ccc(OC(F)(F)F)cc1 [FCCP, carbonyl cyanide p-(trifluoromethoxy)phenylhydrazone]
- cell death as measured by membrane exclusion (YO-PRO) [1]: no increase in cell death
- lysosomal function (Lysosensor fluorescence) [2]: reductions in lysosomal function, albeit not as profound
- cellular ATP levels [3]: did not alter cellular ATP levels at any of the concentrations or time points measured
- mitochondrial membrane potential [4]: sufficient to alter mitochondrial membrane potential
- endosomal functioning (Tf-Tx and Tf-F signals) ([5]; FCCP 5 μM and 500 nM): did not significantly alter endosomal functioning
- production of the ectodomain fragment APPsα (APPsα release) ([6]; 30 min and 4 hours): only affected by 4 hour exposure to 5 μM FCCP
- formation of the C100 fragment (cellular C100) ([6]; 4 hours): concentration-dependent decrease in the formation of the C100 fragment
- maturation of APP via N'/O' linked glycosylation ([6]; 4 hours): neither total cellular levels of APP nor the maturation of APP via N′/O′ linked glycosylation were affected
- total cellular levels of APP ([6]; 4 hours): neither total cellular levels of APP nor the maturation of APP via N′/O′ linked glycosylation were affected
- Aβ release ([6]; 30 min): concentration-dependent decrease in Aβ release
- Aβ release ([6]; 4 hours): decreases in Aβ release were even more pronounced
- APPsα production [7]: marked concentration-dependent decrease in APPsα production
- Aβ production [7]: clearly inhibited Aβ production in a concentration-dependent manner
- maturation of APP [7]: unaffected
- total levels of cellular APP [7]: unaffected
- cellular ATP levels [8]: sufficient to modestly decrease cellular ATP levels

Structure (SMILES): Cl.N [NH4Cl, ammonium chloride]
- lysosomal function (Lysosensor fluorescence) [2]: profound reductions in lysosomal functioning
- APP proteolytic processing / APP catabolism [9]: decrease APP proteolytic processing
- impairment of endosomal function (decrease in Tf-Tx and Tf-F signals) [5]: approximately 50%

Structure (SMILES): CC[C@@]1([C@@H]2O[C@@H]([C@H]3O[C@@](O)(CO)[C@H](C)C[C@@H]3C)C[C@@H]2C)CC[C@H]([C@]2(C)CC[C@]3(C[C@H](O)[C@@H](C)[C@@H]([C@@H](C)[C@@H](OC)[C@H](C)C(=O)O)O3)O2)O1 [monensin]
- APP proteolytic processing / APP catabolism [9]: decrease APP proteolytic processing

Structure (SMILES): CO/C1=C\C(C)=C\[C@@H](C)[C@@H](O)[C@@H](C)C/C(C)=C/C=C/[C@H](OC)[C@@H]([C@@H](C)[C@@H](O)[C@H](C)[C@@]2(O)C[C@@H](O)[C@H](C)[C@@H](C(C)C)O2)OC1=O [baf A1, bafilomycin A1]
- lysosomal function (Lysosensor fluorescence) [2]: profound reductions in lysosomal functioning
- Aβ production [10]: reduced Aβ production
- APP proteolytic processing / APP catabolism [9]: alterations in APP catabolism which are both cell-type and APP mutation specific
- Aβ production [11]: lack of effect
- impairment of endosomal function (decrease in Tf-Tx and Tf-F signals) [5]: approximately 50%

Reference: patent US6472145B2, “Method and composition for modulating amyloidosis” (priority 1998, dated 2002)
